Test results from patent publication US6596692B1, “Substance P analogs for the treatment of cancer” (Dabur Research Foundation, priority 2000, dated 2003).
Non-standard residues stand in square brackets, D forms with d. Residues, ends and D or L forms follow the SMILES beside them. *: point of attachment. Octanoyl = CCCCCCCC(=O)*; pHOPA = not defined here; Ac5c = NC1(C(=O)O)CCCC1; Butyryl = CCCC(=O)*

Columns and labels:
[1] = tested on: PTC (colon); assay: In vitro cytotoxic activity, MTT assay, 72 hours; format: cell-based, human
Procedure: (§1) In vitro Cytotoxic Activity of the Novel Synthesized Peptide Analogs
(§2) The cytotoxic activity of synthesized peptides was tested on six human tumor cell lines namely MCF7 (breast), U373 (glioblastoma), PTC, (colon), L132 (lung), Su.86.86 (pancreas), and KB (oral). The tumor cells were collected at exponential growth phase and resuspended in medium (1.5×10^6 cells/ml in RPMI 1640 containing 10% FBS). 150 μL of medium was added to the wells of a 96-well tissue culture plate (Nunc, Denmark) followed by 30 μl of cell suspension. The plate was left in an incubator (37° C., 5% CO2) overnight. 20 μl of the peptide (100 pM to 10 μM concentration) was added to marked wells of the 96-well plate. Each concentration was plated in triplicate. 20 μl of medium alone was added to control wells while wells without cells served as blanks. A total volume of 200 μL was ensured in each well and plate was left in incubator (37° C., 5% CO2). After 72 hours of incubation an MTT assay was performed and percentage cytotoxicity was calculated with respect to control cells.

[2] = tested on: Su.86.86 (pancreas); assay: In vitro cytotoxic activity, MTT assay, 72 hours; format: cell-based, human; conditions: Su8686, 100 pM
Procedure: as §1, §2

[3] = tested on: MCF7 (breast); assay: In vitro cytotoxic activity, MTT assay, 72 hours; format: cell-based, human; conditions: MCF-7, 100 pM
Procedure: as §1, §2

[4] = tested on: human colon adenocarcinoma (PTC) xenografts; assay: In vivo anti tumor activity on PTC tumor xenografts; set-up: species or system Balb/c athymic nude mice; conditions: 4.25 μg intravenously twice a day; for Tumor volumes, Average: group average
Procedure: In vivo Anti Tumor Activity of Substance P Analogs on PCT Tumor Xenografts Protocol The anti tumor activity of substance P analogs was studied in human colon adenocarcinoma (PTC) xenografts in nude mice. PTC tumor xenografts were grown in Balb/c athymic nude mice by subcutaneous inoculation of a single cell suspension of PTC cells (15×10^6 cells/100 μL). The tumor bearing animals were divided into 4 groups of three animals each including one group comprising untreated control animals. Treatment with Substance P Receptor Antagonists was initiated when the average tumor volumes, as measured using a vernier caliper, were between 400-800 mm^3. SEQ ID NO:5, SEQ ID NO:7 and SEQ ID NO:8 peptides were prepared at a concentration of 42.5 μg/ml and intravenously administered to the assigned group of tumor bearing animals at a dose of 4.25 μg/100 μL twice a day so that the total dose of 8.5 μg was administered to each animal. The treatment was continued for a period of 10 days. The antitumor activity of the compounds was monitored by measuring 15 tumor volumes every fourth day using the formula W*W*L*0.4 (W=smaller diameter, L=larger diameter). The percentage inhibition of tumor growth was calculated using. the formula (1−tumor volume-treated/ tumor volume-control)×100.

[5] = tested on: KB (oral); assay: In vitro cytotoxic activity, MTT assay, 72 hours; format: cell-based, human; conditions: 100 pM
Procedure: as §1, §2

[6] = tested on: L132 (lung); assay: In vitro cytotoxic activity, MTT assay, 72 hours; format: cell-based, human
Procedure: as §1, §2

[7] = tested on: SCLC cells; conditions: SCLC proliferation; read-out: IC50, inhibition of SCLC proliferation; cited from earlier work
[8] = tested on: SCLC xenografts; conditions: cited from earlier work
[9] = tested on: Swiss 3T3 cells; conditions: cited from earlier work
[10] = tested on: H-510 SCLC cells; conditions: liquid culture and semi-solid media, read-out: IC50, inhibition of proliferation; cited from earlier work
[11] = tested on: H-69 SCLC cells; conditions: liquid culture and semi-solid media, read-out: IC50, inhibition of proliferation; cited from earlier work
[12] = tested on: H69 SCLC cells; conditions: cited from earlier work
[13] = tested on: H69 SCLC cells xenografts; conditions: xenografts in vivo in nude mice; cited from earlier work

Molecule	Tumor volumes, animal I ([4]; Day 6) [mm^3]	Tumor volumes, animal II ([4]; Day 6) [mm^3]	Tumor volumes, animal III ([4]; Day 6) [mm^3]	Tumor volumes, Average ([4]; Day 6) [mm^3]	Tumor volumes, animal I ([4]; Day 8) [mm^3]	Tumor volumes, animal II ([4]; Day 8) [mm^3]	Tumor volumes, animal III ([4]; Day 8) [mm^3]	Tumor volumes, Average ([4]; Day 8) [mm^3]	Tumor volumes, animal I ([4]; Day 12) [mm^3]	Tumor volumes, animal II ([4]; Day 12) [mm^3]	Tumor volumes, animal III ([4]; Day 12) [mm^3]	Tumor volumes, Average ([4]; Day 12) [mm^3]	Tumor volumes, animal I ([4]; Day 15) [mm^3]	Tumor volumes, animal II ([4]; Day 15) [mm^3]	Tumor volumes, animal III ([4]; Day 15) [mm^3]	Tumor volumes, Average ([4]; Day 15) [mm^3]	Tumor volumes, animal I ([4]; Day 19) [mm^3]	Tumor volumes, animal II ([4]; Day 19) [mm^3]	Tumor volumes, animal III ([4]; Day 19) [mm^3]	Tumor volumes, Average ([4]; Day 19) [mm^3]	further results
CC(C)C[C@H](NC(=O)[C@@H](Cc1c[nH]c2ccccc12)NC(=O)[C@H](Cc1ccccc1)NC(=O)[C@@H](Cc1c[nH]c2ccccc12)NC(=O)[C@H](CCC(N)=O)NC(=O)[C@@H](Cc1ccccc1)NC(=O)[C@@H]1CCCN1C(=O)[C@H](CCCCN)NC(=O)[C@@H]1CCCN1C(=O)[C@H](N)CCCNC(=N)N)C(=O)NC1(C(N)=O)CCCC1 [SEQ ID NO: 5, D-Arg-Pro-Lys-Pro-D-Phe-Gln-D-Trp-Phe-D-Trp-Leu-Ac5c-NH2] (H-[dR]PKP[dF]Q[dW]F[dW]L[Ac5c]-NH2; N-terminus assumed)	307.8	520	687.7	505.1	748.8	1149.2	1411.2	1103.0	2049	3080.3	3840.0	2989.7	3310	3360	4480.0	3716.6	3582	1465.6	3499.2	2848.9	Percentage cytotoxicity ([1]; 100 pM): Nil; Percentage cytotoxicity ([1]; 1 nM): 3.1 ± 0.5%; Percentage cytotoxicity [2]: Nil; Percentage cytotoxicity [3]: Nil; Tumor volumes, animal II ([4]; Day 22): 100 mm^3; Tumor volumes, animal III ([4]; Day 22): 2560.0 mm^3; Tumor volumes, Average ([4]; Day 22): 1330.0 mm^3
CCCC(=O)N[C@H](CCCNC(=N)N)C(=O)N1CCC[C@H]1C(=O)N[C@@H](CCCCN)C(=O)N1CCC[C@H]1C(=O)N[C@H](Cc1ccccc1)C(=O)N[C@@H](CCC(N)=O)C(=O)N[C@H](Cc1c[nH]c2ccccc12)C(=O)N[C@@H](Cc1ccccc1)C(=O)N[C@H](Cc1c[nH]c2ccccc12)C(=O)N[C@@H](CC(C)C)C(=O)NC1(C(N)=O)CCCC1 [SEQ ID NO: 7, Butanoyl-D-Arg-Pro-Lys-Pro-D-Phe-Gln-D-Trp-Phe-D-Trp-Leu-Ac5c-NH2] (Butyryl-[dR]PKP[dF]Q[dW]F[dW]L[Ac5c]-NH2)	25.6	66.6	0	30.7	176.4	260.1	72	169.5	580.8	1440	281.6	767.4	946.4	2427.6	864	1412.6	1741	2253	1800	1931.3	Percentage cytotoxicity ([1]; 100 pM): Nil; Percentage cytotoxicity ([1]; 1 nM): Nil; Percentage cytotoxicity [5]: Nil; Percentage cytotoxicity ([6]; 100 nM): 9 ± 2.3%; Percentage cytotoxicity ([6]; 10 μM): 15 ± 2.3%; Tumor volumes, animal I ([4]; Day 22): 2018 mm^3; Tumor volumes, animal II ([4]; Day 22): 3110 mm^3; Tumor volumes, animal III ([4]; Day 22): 0 mm^3; Tumor volumes, Average ([4]; Day 22): 1709.3 mm^3
CCCCCCCC(=O)N[C@H](CCCNC(=N)N)C(=O)N1CCC[C@H]1C(=O)N[C@@H](CCCCN)C(=O)N1CCC[C@H]1C(=O)N[C@H](Cc1ccccc1)C(=O)N[C@@H](CCC(N)=O)C(=O)N[C@H](Cc1c[nH]c2ccccc12)C(=O)N[C@@H](Cc1ccccc1)C(=O)N[C@H](Cc1c[nH]c2ccccc12)C(=O)N[C@@H](CC(C)C)C(=O)NC1(C(N)=O)CCCC1 [SEQ ID NO: 8, Octanoyl-D-Arg-Pro-Lys-Pro-D-Phe-Gln-D-Trp-Phe-D-Trp-Leu-Ac5c-NH2] (Octanoyl-[dR]PKP[dF]Q[dW]F[dW]L[Ac5c]-NH2)	532.4	291.6	0	274.6	1020.6	691.2	0	570.6	2080.8	1440	156.8	1225.8	3880.8	2592	580.8	2351.2	3520.0	1474.8	1710	2234.9	Tumor volumes, animal I ([4]; Day 22): 2312.0 mm^3; Tumor volumes, animal II ([4]; Day 22): 36 mm^3; Tumor volumes, animal III ([4]; Day 22): 3177 mm^3; Tumor volumes, Average ([4]; Day 22): 1841.6 mm^3
D-MePhe-D-Trp-Phe-D-TrpLeu(psi)-(CH2NH)-Leu-NH2) [Analog 6]																					IC50 [7]: 2 µM
D-MePhe-D-Trp-Phe-DTrp-Leu-MPA [Analog 7]																					IC50 [7]: 5 µM
[Arg^6,D-Trp^7,9, MePhe^8] substance P(6-11) [antagonist G]																					inhibition of SCLC xenografts in vivo [8]: showed inhibition of SCLC xenografts in vivo; potency relative to antagonist D ([9]; blocking bombesin/GRP mediated mitogenesis in Swiss 3T3 cells): ten fold less potent than antagonist D
[D-Arg^1, D-Phe^5, D-Trp^7,9, Leu^11] substance P [Antagonist D]																					IC50 [10]: 5 µM; potency relative to antagonist A ([9]; preventing cellular effects of bombesin/GRP and vasopressin in mouse 3T3 cells, also growth of SCLC cells in serumfree medium): five fold more potent than antagonist A; IC50 [11]: 5 µM
pHOPA-D-Trp-Phe-D-Trp-Leu-Leu-NH2 (pHOPA-[dW]F[dW]LL-NH2; reading uncertain) [Analog R]																					inhibition of proliferation of H69 SCLC cells in vitro [12]: inhibit the proliferation; inhibition of proliferation of H69 SCLC cells in xenografts [13]: inhibit the proliferation
